Reference: the supplement of paper PMC10307832

How the values were obtained:
Assay in all cases: relative viability (nuclei count vs DMSO), 5 days (fraction); higher = more cells survive
[1] = compound: C1=CC=C(C(=C1)C2=CC=C(C=C2)C3=CSC4=C3C(=C(C(=O)N4)C#N)O)O + CC(C)C[C@H](NC(=O)[C@H](Cc1ccccc1)NC(=O)c1cnccn1)B(O)O [Bortezomib] (partner 0.002 µM)
How it was run: (§1)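 Dosing by pin tool came one day after lung cancer cell lines were seeded in 1536-well plates, using either one drug or a fixed anchor-drug dose plus five library-drug doses (not always all listed) in √10 steps. After 5 days, nuclei were counted on 4× images. Relative viability is treated-well nuclei count divided by vehicle-well nuclei count, and values are medians of duplicate plates.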

[2] = compound: C1=CC=C(C(=C1)C2=CC=C(C=C2)C3=CSC4=C3C(=C(C(=O)N4)C#N)O)O + CS(=O)(=O)N1CCN(Cc2cc3nc(-c4cccc5[nH]ncc45)nc(N4CCOCC4)c3s2)CC1 [Pictilisib] (partner 1 µM)
How it was run: as §1

[3] = compound: CC1=CN2C(=O)C=C(N=C2C(=C1)C(C)NC3=CC=CC=C3)N4CCOCC4 [TGX 221] + N=C(N)NC(=N)NCCc1ccccc1 [Phenformin] (partner 250 µM)
How it was run: as §1

[4] = compound: CC1=CN2C(=O)C=C(N=C2C(=C1)C(C)NC3=CC=CC=C3)N4CCOCC4 [TGX 221] + Nc1ncn([C@H]2C[C@H](O)[C@@H](CO)O2)c(=O)n1 [Decitabine] (partner 2 µM)
How it was run: as §1

| Cell Line | relative viability ([1]; first compound 0.08 µM) | relative viability ([1]; first compound 0.253 µM) | relative viability ([1]; first compound 0.8 µM) | relative viability ([1]; first compound 2.53 µM) | relative viability ([1]; first compound 8 µM) | relative viability ([2]; first compound 0.08 µM) | relative viability ([2]; first compound 0.253 µM) | relative viability ([2]; first compound 0.8 µM) | relative viability ([2]; first compound 2.53 µM) | relative viability ([2]; first compound 8 µM) | relative viability ([3]; first compound 0.08 µM) | relative viability ([3]; first compound 0.253 µM) | relative viability ([3]; first compound 0.8 µM) | relative viability ([3]; first compound 2.53 µM) | relative viability ([3]; first compound 8 µM) | relative viability ([4]; first compound 0.08 µM) | relative viability ([4]; first compound 0.253 µM) | relative viability ([4]; first compound 0.8 µM) | relative viability ([4]; first compound 2.53 µM) | relative viability ([4]; first compound 8 µM) |
| --- | --- | --- | --- | --- | --- | --- | --- | --- | --- | --- | --- | --- | --- | --- | --- | --- | --- | --- | --- | --- |
| NCI-H1755 | 0.954 | 1.04 | 0.872 | 0.978 | 0.814 | 0.279 | 0.59 | 0.381 | 0.396 | 0.383 | 0.584 | 0.598 | 0.549 | 0.585 | 0.528 | 0.723 | 0.657 | 0.655 | 0.631 | 0.632 |
| SK-LU-1 |  | 0.83 | 1.12 | 1.36 | 1.16 | 0.426 | 0.532 | 0.57 | 0.61 | 0.508 | 0.542 | 0.502 | 0.498 | 0.491 | 0.477 | 0.612 | 0.626 | 0.522 | 0.588 | 0.626 |
| NCI-H1793 |  |  |  |  |  | 0.379 | 0.352 | 0.269 | 0.312 | 0.242 | 0.367 | 0.256 | 0.311 | 0.25 | 0.309 | 0.442 | 0.369 | 0.479 | 0.381 | 0.37 |
| NCI-H647 | 1.01 | 1.16 | 1.09 | 0.919 | 0.649 | 0.226 | 0.449 | 0.515 | 0.377 | 0.389 | 0.457 | 0.414 | 0.405 | 0.427 | 0.457 | 0.288 | 0.406 | 0.385 | 0.355 | 0.384 |
| NCI-H1975 | 0.357 | 0.348 | 0.436 | 0.41 | 0.343 | 0.272 | 0.308 | 0.231 | 0.271 | 0.264 | 0.395 | 0.402 | 0.389 | 0.399 | 0.366 | 0.542 | 0.386 | 0.385 | 0.362 | 0.39 |
| NCI-H1648 |  |  |  |  |  |  |  |  |  |  |  |  |  |  |  |  | 0.554 | 0.499 | 0.474 | 0.523 |
| NCI-H2126 | 1.06 | 1.13 | 1.18 | 1.21 | 1.22 | 0.455 | 0.498 | 0.478 | 0.515 | 0.503 | 0.483 | 0.487 | 0.535 | 0.515 | 0.507 | 0.568 | 0.567 | 0.633 | 0.55 | 0.554 |
| EBC-1 | 0.629 | 0.435 | 0.489 | 0.598 | 0.509 | 0.353 | 0.429 | 0.346 | 0.343 | 0.368 |  |  |  |  |  |  |  |  |  |  |
| NCI-H1651 | 0.866 | 0.914 | 1.01 | 1.02 | 0.834 | 0.361 | 0.61 | 0.636 | 0.565 | 0.568 | 0.283 | 0.265 | 0.437 | 0.316 | 0.286 | 0.524 | 0.675 | 0.492 | 0.594 | 0.601 |
| NCI-H2228 | 0.973 | 0.922 | 1.07 | 0.959 | 0.73 | 0.326 | 0.4 | 0.479 | 0.365 | 0.344 | 0.377 | 0.317 | 0.256 | 0.312 | 0.258 |  |  |  |  |  |
| SK-MES-1 |  |  |  |  |  | 0.33 | 0.368 | 0.354 | 0.284 | 0.307 | 0.71 | 0.66 | 0.706 | 0.719 | 0.574 | 0.397 | 0.365 | 0.373 | 0.395 | 0.36 |
| NCI-H522 |  |  |  |  |  |  |  |  |  |  | 0.699 | 0.581 | 0.597 | 0.669 | 0.657 | 0.717 | 0.624 | 0.696 | 0.587 | 0.64 |
| Calu-6 | 1.18 | 1.14 | 1.26 | 1.06 | 0.971 | 0.959 | 0.967 | 1.05 | 0.988 | 0.812 |  |  |  |  |  |  |  |  |  |  |
| NCI-H358 |  |  |  |  |  | 0.415 | 0.344 | 0.329 | 0.342 | 0.414 | 0.355 | 0.31 | 0.296 | 0.382 | 0.324 | 0.22 | 0.216 | 0.209 | 0.181 | 0.203 |
| NCI-H1703 | 0.28 | 0.395 | 0.289 | 0.301 | 0.38 | 0.236 | 0.292 | 0.25 | 0.259 | 0.24 |  |  |  |  |  |  |  |  |  |  |
| NCI-H1944 |  |  |  |  |  | 0.349 | 0.39 | 0.317 | 0.343 | 0.357 | 0.188 | 0.196 | 0.191 | 0.186 | 0.184 |  | 0.449 | 0.442 | 0.443 | 0.389 |
| CAL-12T |  | 0.898 | 0.911 | 0.936 | 0.804 |  | 0.446 | 0.359 | 0.337 | 0.367 | 0.629 | 0.55 | 0.62 | 0.56 | 0.661 |  |  |  |  |  |
| NCI-H1395 |  |  |  |  |  |  | 0.533 | 0.631 | 0.545 | 0.643 | 0.398 | 0.435 | 0.401 | 0.436 | 0.409 | 0.712 | 0.685 | 0.662 | 0.615 | 0.614 |
| A549 |  |  |  |  |  | 0.322 | 0.552 | 0.539 | 0.516 | 0.422 | 0.198 | 0.138 | 0.185 | 0.209 | 0.152 | 0.337 | 0.25 | 0.294 | 0.26 | 0.349 |
| SW 900 |  |  |  |  |  |  |  |  |  |  | 0.572 | 0.455 | 0.473 | 0.448 | 0.525 |  | 0.406 | 0.466 | 0.42 | 0.351 |
| LK-2 |  |  |  |  |  |  |  | 0.507 | 0.656 | 0.514 | 0.382 | 0.474 | 0.498 | 0.348 | 0.567 | 0.341 | 0.308 | 0.25 | 0.296 | 0.307 |
| IA-LM | 0.672 | 1.13 | 0.879 | 1.01 | 0.58 | 0.273 | 0.452 | 0.287 | 0.369 | 0.238 |  |  |  |  |  |  |  |  |  |  |
